Patent US11987543B1, “8-(4-bromobenzylideneamino)naphthalene-1,3-disulfonic acid as an antioxidant compound” (KING FAISAL UNIVERSITY, priority 2023, dated 2024)

Test: DPPH radical scavenging antioxidant test
Type: biochemical
Conditions: for A (absorbance read against a blank at 517 nm) / Inhibition (radical scavenging inhibition): 0.2 mL DPPH (0.75 mM), compound 3 μM in ethanol, 30 min incubation in the dark
Experimental: The antioxidant properties of the 8-(4-bromobenzylideneamino)naphthalene-1,3-disulfonic acid were studied by adding 0.2 mL DPPH (0.75 mM)) to compound 8-(4-bromobenzylideneamino)naphthalene-1,3-disulfonic acid (III) (3 μM) in ethanol. After 30 min of incubation in the dark, the absorbance was read against a blank at 517 nm. Ascorbic acid (vitamin C) was used as standard antioxidants (positive control). A blank sample was prepared by 0.2 ml of DPPH in 3 ml ethanol. A negative control sample was run using ethanol instead of the sample. The radical scavenging inhibition was calculated using the following equation: […]

Structure (SMILES)	A (absorbance read against a blank at 517 nm)	Inhibition (radical scavenging inhibition) (517 nm)	antioxidant potential compared to vitamin C (in words) (DPPH in vitro test, vitamin C as positive control, 517 nm)
O=S(=O)(O)c1cc(S(=O)(=O)O)c2c(/N=C/c3ccc(Br)cc3)cccc2c1 [Product III, 8-(4-bromobenzylideneamino)naphthalene-1,3-disulfonic acid]	0.21	50%	high potential as an antioxidant compared to vitamin C
O=C1O[C@H]([C@@H](O)CO)C(O)=C1O [vit c, Ascorbic acid, reference compound]	0.12	74%	
